Structures are written as SMILES.

These results are taken from paper PMC6600512, “Interactions between β-Lactoglobulin and 3,3′-Diindolylmethane in Model System” (Molecules, 2019).

The target in the test is T1, β-Lactoglobulin (β-LG) (Bos taurus, UniProt P02754).
T1 construct: gene LGB
T1 sequence (P02754 17-178): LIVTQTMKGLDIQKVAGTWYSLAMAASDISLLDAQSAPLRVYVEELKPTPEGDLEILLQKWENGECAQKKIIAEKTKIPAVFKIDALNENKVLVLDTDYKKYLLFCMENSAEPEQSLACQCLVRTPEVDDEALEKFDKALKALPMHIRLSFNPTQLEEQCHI
Briefly: intrinsic fluorescence enhancement titration (binding constant from […]/ΔF vs […]/Cq); supported by CD, FT-IR, UV, DLS and zeta potential. The following applies: read-out: intrinsic fluorescence enhancement titration (binding constant from 1/ΔF vs 1/Cq) (converted).

`c1ccc2c(Cc3c[nH]c4ccccc34)c[nH]c2c1` [DIM, 3,3′-diindolylmethane]: the Kd was 1490 nM.
